From patent US3960837A, “Polyamine compounds and methods for their production” (Parke, Davis & Company, priority 1974, dated 1976) come the findings set out here.

Assay type in all cases: cell-based
The test system of one test is Enterobacter cloacae. Description: in vitro antibacterial screening, minimal inhibitory concentration, Enterobacter cloacae. Particulars: Enterobacter cloacae (1 strain); Tryptic Soy broth; free base equivalent. The source says:
(§1) Aminotrideoxybutirosin A and its acid-addition salts posses antibacterial activity. They show activity when tested by well-recognized in vitro antibacterial screening procedures. […] Where more than a single strain of test organism is indicated an average or approximate minimal inhibitory concentration is given.

The next test deals with Klebsiella pneumoniae. Description: in vitro antibacterial screening, minimal inhibitory concentration, Klebsiella pneumoniae. Particulars: Klebsiella pneumoniae (1 strain); Tryptic Soy broth; free base equivalent.
Text: as §1

Another test deals with Pseudomonas aeruginosa. Description: in vitro antibacterial screening, minimal inhibitory concentration, Pseudomonas aeruginosa. The following applies: Pseudomonas aeruginosa (6 strains), average or approximate; Tryptic Soy broth; free base equivalent.
Text: as §1

The test system of another test is Serratia marcescens. Description: in vitro antibacterial screening, minimal inhibitory concentration, Serratia marcescens. Particulars: Serratia marcescens (1 strain); Tryptic Soy broth; free base equivalent.
Text: as §1

The subject of another test is Staphylococcus aureus. The test can be described thus: in vitro antibacterial screening, minimal inhibitory concentration, Staphylococcus aureus (butirosin resistant strain). The following applies: Staphylococcus aureus (1 strain), Tryptic Soy broth, free base equivalent.
Text: as §1
(§2) *Butirosin resistant strain

Test [1] concerns Pseudomonas aeruginosa Aquilar. The test can be described thus: in vitro antibacterial screening, minimal inhibitory concentration, Pseudomonas aeruginosa Aquilar (butirosin resistant strain). Particulars: Pseudomonas aeruginosa Aquilar (1 strain), Tryptic Soy broth, free base equivalent.
Text: as §1, §2

For a further test, the system named is Escherichia coli. The test can be described thus: in vitro antibacterial screening, minimal inhibitory concentration, Escherichia coli. Particulars: Escherichia coli (1 strain); Tryptic Soy broth; free base equivalent.
Text: as §1

A word on the MIC: it is the lowest concentration that inhibits growth of the organism. For the compound `NCC[C@H](O)C(=O)N[C@@H]1C[C@H](N)[C@@H](O[C@H]2O[C@H](CN)CC[C@H]2N)[C@H](O[C@@H]2O[C@H](CN)[C@H](O)[C@H]2O)[C@H]1O` [Aminotrideoxybutirosin A, O-2,6-Diamino-2,3,4,6-tetradeoxy-α-D-erythro-hexopyranosyl-(1→4)-O-[5-amino-5-deoxy-β-D-xylofuranosyl-(1→5)]-N^1-[(S)-4-amino-2-hydroxy-1-oxobutyl]-2-deoxystreptamine], the MIC is 6.3 mg/L with Enterobacter cloacae; 6.3 mg/L in the test on Klebsiella pneumoniae; 3.6 mg/L with Pseudomonas aeruginosa; 12.5 mg/L with Serratia marcescens; 3.1 mg/L in the test with Staphylococcus aureus; 6.3 mg/L in test [1]. For the same compound, in the test with Escherichia coli, the MIC amounted to 12.5 mg/L.

For the compound Butirosin, the “Minimal Inhibitory Concentration” value in the test on Enterobacter cloacae is recorded as 6.3 micrograms/ml; with Klebsiella pneumoniae, 6.3 micrograms/ml; in the test with Pseudomonas aeruginosa, 19.8 micrograms/ml; in the test with Serratia marcescens, 25 micrograms/ml; in the test with Staphylococcus aureus it was 50 micrograms/ml; in test [1], greater than 200 micrograms/ml. The “Minimal Inhibitory Concentration” value with Escherichia coli was greater than 200 micrograms/ml.
